# Key:
# Test in all cases: relative viability (nuclei count vs DMSO), 5 days (fraction); higher = more cells survive
# ABC-1 = system: ABC-1
# Outline: (§1)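 One day after seeding in 1536-well plates, lung cancer cell lines were dosed by pin tool. Dosing was either single-drug or a fixed anchor-drug dose plus five library-drug doses (not always all listed) in √10 steps. After 5 days, nuclei were stained in one fix-and-stain step and counted on 4× images, and relative viability is the nuclei count of treated wells over that of vehicle wells, given as the median of duplicate plates.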
# EKVX = system: EKVX
# Outline: as §1
# NCI-H1623 = system: NCI-H1623
# Outline: as §1
# NCI-H1993 = system: NCI-H1993
# Outline: as §1
# NCI-H2085 = system: NCI-H2085
# Outline: as §1
# NCI-H2126 = system: NCI-H2126
# Outline: as §1
# RERF-LC-KJ = system: RERF-LC-KJ
# Outline: as §1
# A549 = system: A549
# Outline: as §1
# Calu-6 = system: Calu-6
# Outline: as §1
# EBC-1 = system: EBC-1
# Outline: as §1
# HCC-44 = system: HCC-44
# Outline: as §1
# IA-LM = system: IA-LM
# Outline: as §1
# NCI-H1299 = system: NCI-H1299
# Outline: as §1
# NCI-H1648 = system: NCI-H1648
# Outline: as §1
# NCI-H1703 = system: NCI-H1703
# Outline: as §1
smiles,measurement,setting,value
COc1nc(C)cnc1NS(=O)(=O)c1cccnc1-c1ccc(-c2nnco2)cc1 [Zibotentan] + Cc1nc(Nc2ncc(C(=O)Nc3c(C)cccc3Cl)s2)cc(N2CCN(CCO)CC2)n1 [Dasatinib] (partner 0.075 µM),relative viability,ABC-1; first compound 0.08 µM,0.568
same,relative viability,ABC-1; first compound 0.253 µM,0.572
same,relative viability,ABC-1; first compound 0.8 µM,0.548
same,relative viability,ABC-1; first compound 2.53 µM,0.556
same,relative viability,EKVX; first compound 0.08 µM,0.612
same,relative viability,EKVX; first compound 0.253 µM,0.529
same,relative viability,EKVX; first compound 0.8 µM,0.392
same,relative viability,EKVX; first compound 2.53 µM,0.572
same,relative viability,NCI-H1623; first compound 0.08 µM,0.533
same,relative viability,NCI-H1623; first compound 0.8 µM,0.567
same,relative viability,NCI-H1623; first compound 2.53 µM,0.507
same,relative viability,NCI-H1993; first compound 0.08 µM,0.565
same,relative viability,NCI-H1993; first compound 0.253 µM,0.63
same,relative viability,NCI-H1993; first compound 0.8 µM,0.481
same,relative viability,NCI-H1993; first compound 2.53 µM,0.741
same,relative viability,NCI-H2085; first compound 0.08 µM,0.24
same,relative viability,NCI-H2085; first compound 0.253 µM,0.227
same,relative viability,NCI-H2085; first compound 0.8 µM,0.211
same,relative viability,NCI-H2085; first compound 2.53 µM,0.213
same,relative viability,NCI-H2126; first compound 0.08 µM,0.632
same,relative viability,NCI-H2126; first compound 0.8 µM,0.53
same,relative viability,NCI-H2126; first compound 2.53 µM,0.685
same,relative viability,RERF-LC-KJ; first compound 0.08 µM,0.863
same,relative viability,RERF-LC-KJ; first compound 0.8 µM,0.671
same,relative viability,RERF-LC-KJ; first compound 2.53 µM,0.749
COc1nc(C)cnc1NS(=O)(=O)c1cccnc1-c1ccc(-c2nnco2)cc1 [Zibotentan] + O=C(c1cc(Cc2n[nH]c(=O)c3ccccc23)ccc1F)N1CCN(C(=O)C2CC2)CC1 [Olaparib] (partner 8 µM),relative viability,A549; first compound 0.08 µM,0.365
same,relative viability,A549; first compound 0.253 µM,0.31
same,relative viability,A549; first compound 0.8 µM,0.333
same,relative viability,A549; first compound 2.53 µM,0.32
same,relative viability,ABC-1; first compound 0.08 µM,1
same,relative viability,ABC-1; first compound 0.253 µM,0.527
same,relative viability,ABC-1; first compound 0.8 µM,0.8
same,relative viability,ABC-1; first compound 2.53 µM,0.819
same,relative viability,Calu-6; first compound 0.08 µM,0.61
same,relative viability,Calu-6; first compound 0.253 µM,0.518
same,relative viability,Calu-6; first compound 0.8 µM,0.621
same,relative viability,Calu-6; first compound 2.53 µM,0.555
same,relative viability,EBC-1; first compound 0.08 µM,0.698
same,relative viability,EBC-1; first compound 0.253 µM,0.713
same,relative viability,EBC-1; first compound 0.8 µM,0.827
same,relative viability,EBC-1; first compound 2.53 µM,0.651
same,relative viability,EKVX; first compound 0.08 µM,0.909
same,relative viability,EKVX; first compound 0.253 µM,0.733
same,relative viability,EKVX; first compound 0.8 µM,0.799
same,relative viability,EKVX; first compound 2.53 µM,0.917
same,relative viability,HCC-44; first compound 0.08 µM,0.958
same,relative viability,HCC-44; first compound 0.253 µM,0.965
same,relative viability,HCC-44; first compound 0.8 µM,0.98
same,relative viability,HCC-44; first compound 2.53 µM,0.957
same,relative viability,IA-LM; first compound 0.08 µM,0.966
same,relative viability,IA-LM; first compound 0.253 µM,0.86
same,relative viability,IA-LM; first compound 0.8 µM,0.938
same,relative viability,IA-LM; first compound 2.53 µM,0.824
same,relative viability,NCI-H1299; first compound 0.08 µM,1.01
same,relative viability,NCI-H1299; first compound 0.253 µM,0.906
same,relative viability,NCI-H1299; first compound 0.8 µM,0.973
same,relative viability,NCI-H1299; first compound 2.53 µM,1
same,relative viability,NCI-H1648; first compound 0.08 µM,0.853
same,relative viability,NCI-H1648; first compound 0.253 µM,0.503
same,relative viability,NCI-H1648; first compound 0.8 µM,0.85
same,relative viability,NCI-H1648; first compound 2.53 µM,0.954
same,relative viability,NCI-H1703; first compound 0.08 µM,0.476
same,relative viability,NCI-H1703; first compound 0.253 µM,0.368
same,relative viability,NCI-H1703; first compound 0.8 µM,0.435
same,relative viability,NCI-H1703; first compound 2.53 µM,0.292
same,relative viability,NCI-H1993; first compound 0.08 µM,1.01
same,relative viability,NCI-H1993; first compound 0.253 µM,0.842
same,relative viability,NCI-H1993; first compound 0.8 µM,0.853
same,relative viability,NCI-H1993; first compound 2.53 µM,1.08
same,relative viability,NCI-H2085; first compound 0.08 µM,0.742
same,relative viability,NCI-H2085; first compound 0.253 µM,0.734
same,relative viability,NCI-H2085; first compound 0.8 µM,0.856
same,relative viability,NCI-H2085; first compound 2.53 µM,0.801
same,relative viability,NCI-H2126; first compound 0.08 µM,0.945
same,relative viability,NCI-H2126; first compound 0.253 µM,0.942
same,relative viability,NCI-H2126; first compound 0.8 µM,0.89
same,relative viability,NCI-H2126; first compound 2.53 µM,0.951
same,relative viability,RERF-LC-KJ; first compound 0.08 µM,0.832
same,relative viability,RERF-LC-KJ; first compound 0.253 µM,0.802
same,relative viability,RERF-LC-KJ; first compound 0.8 µM,0.921
same,relative viability,RERF-LC-KJ; first compound 2.53 µM,0.894
